The values below come from US20110144374A1, “OXIME ETHER DERIVATIVE AND FUNGICIDE FOR AGRICULTURE AND HORTICULTURE” (Nippon Soda Co., Ltd., priority 2008, published 2011).

Broadly, the melting point is the temperature, or range, at which the solid turns liquid.

`COC(=O)NOc1cc(/C(C)=N/OCc2cccc(F)c2C(F)(F)F)ccc1Cl` [Compound 1-13, N-(2-chloro-5-{1-[3-fluoro-2-(trifluoromethyl)benzyloxyimino]ethyl}phenoxy)methyl carbamate] displayed a melting point of 104 to 105 °C.

In turn, `COC(=O)NOc1cc(/C(C)=N/OCc2ccccc2I)ccc1Cl` [Compound 11-9, N-{2-chloro-5-[1-(2-iodobenzyloxyimino)ethyl]phenoxy}methyl carbamate] showed a melting point of 121 to 122 °C.

Consider `COC(=O)NOc1cc(/C(C)=N/OCc2ccccc2C(F)(F)F)ccc1C` [Compound 21-24, N-{2-methyl-5-[1-(2-trifluoromethylbenzyloxyimino)ethyl]phenoxy}methyl carbamate], for which the melting point was in the range of 82 to 85 °C.
